Experimental findings from patent US9029377B2, “Platelet-activating factor receptor antagonists” (Merck Sharp & Dohme Corp., priority 2009, dated 2015) are described below.

Sequence of PAFR (P25105 whole entry): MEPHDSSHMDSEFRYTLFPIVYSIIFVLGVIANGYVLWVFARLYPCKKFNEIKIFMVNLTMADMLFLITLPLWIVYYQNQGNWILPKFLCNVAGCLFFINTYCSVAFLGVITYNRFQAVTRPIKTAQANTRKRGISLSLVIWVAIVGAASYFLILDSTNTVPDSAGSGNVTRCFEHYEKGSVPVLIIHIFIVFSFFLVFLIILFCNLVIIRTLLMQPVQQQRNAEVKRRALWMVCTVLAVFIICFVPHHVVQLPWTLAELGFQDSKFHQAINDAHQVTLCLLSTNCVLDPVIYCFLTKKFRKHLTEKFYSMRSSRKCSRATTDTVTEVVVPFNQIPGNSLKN

The assay concerns the target PAFR (Homo sapiens, UniProt P25105). Kind of assay: PAF Binding Assay (PAFR binding).
Turning to `CCc1cc(-c2ncns2)ccc1S(=O)(=O)N[C@H]1CCC[C@@H](n2cnnc2)C1` [Compound 2Aaz, 2-ethyl-4-(1,2,4-thiadiazol-5-yl)-N-[(1S,3R)-3-(4H-1,2,4-triazol-4-yl)cyclohexyl]benzenesulfonamide], the IC50 (as a rule, the concentration at which inhibition is half-maximal) was determined as 390 nM.

In turn, `O=S(=O)(N[C@H]1CCC[C@@H](n2cnnc2)C1)c1cc(-c2cccn3ccnc23)cc(C(F)(F)F)c1` [Compound 3Aau, 3-imidazo[1,2-a]pyridin-8-yl-N-[(1S,3R)-3-(4H-1,2,4-triazol-4-yl)cyclohexyl]-5-(trifluoromethyl)benzenesulfonamide] had a concentration for half-maximal inhibition (IC50) of 1.4 nM.

Consider `Cc1nncn1[C@H]1C[C@@H](NS(=O)(=O)c2ccc(-c3noc(C4CC4)n3)cc2)CC(F)(F)C1` [Compound 2Ql, 4-(5-cyclopropyl-1,2,4-oxadiazol-3-yl)-N-[(1R,5S)-3,3-difluoro-5-(3-methyl-4H-1,2,4-triazol-4-yl)cyclohexyl]benzenesulfonamide], for which the IC50 was 8.2 nM.

As for `CCc1cccc(S(=O)(=O)N[C@@H]2C[C@H](n3cnnc3)CC(F)(F)C2)c1` [Compound 2Pk, N-[(1R,5S)-3,3-difluoro-5-(4H-1,2,4-triazol-4-yl)cyclohexyl]-3-ethylbenzenesulfonamide], the IC50 stood at 370 nM.

With “3-ethyl-5-imidazo[1,2-a]pyridin-8-yl-N-[(1S,3R)-3-(4H-1,2,4-triazol-4-yl)cyclohexyl]-5-(trifluoromethyl)benzenesulfonamide [Compound 3Bau]”, the IC50 came out at 0.8 nM. Against the preceding compound, the IC50 is about 460-fold lower.

For `O=S(=O)(N[C@@H]1C[C@H](n2cnnc2)CC(F)(F)C1)c1ccc(-c2ccc(OC(F)(F)F)cc2)c(F)c1` [Compound 2Ga, N-[(1R,5S)-3,3-difluoro-5-(4H-1,2,4-triazol-4-yl)cyclohexyl]-2-fluoro-4′-(trifluoromethoxy)biphenyl-4-sulfonamide], the IC50 amounted to 10 nM.

The compound `O=S(=O)(N[C@H]1CCC[C@@H](n2cnnc2)C1)c1ccc(-c2ccc(OC(F)(F)F)cc2)cc1OC(F)(F)F` [Compound 2Bal, N-[(1S,3R)-3-(4H-1,2,4-triazol-4-yl)cyclohexyl]-3,4′-bis(trifluoromethoxy)biphenyl-4-sulfonamide] registered an IC50 of 15 nM.

Turning to `CCc1cc(-c2ccc(OC(C(F)(F)F)C(F)(F)F)cc2)ccc1S(=O)(=O)N[C@H]1CCC[C@@H](n2cnnc2)C1` [Compound 2Aap, 3-ethyl-N-[(1S,3R)-3-(4H-1,2,4-triazol-4-yl)cyclohexyl]-4′-[2,2,2-trifluoro-1-(trifluoromethyl)ethoxy]biphenyl-4-sulfonamide], the IC50 came out at 1.7 nM.

Compound “3-bromo-N-[(1S,3R)-3-(4H-1,2,4-triazol-4-yl)cyclohexyl]-5-(trifluoromethyl)benzenesulfonamide [Compound 3b]” yielded an IC50 of 0.9 nM.

For the compound `CCCCOc1ccc(S(=O)(=O)N[C@H]2CCC[C@@H](n3cnnc3C)C2)c(F)c1` [Compound 2Ji, 4-butoxy-2-fluoro-N-[(1S,3R)-3-(3-methyl-4H-1,2,4-triazol-4-yl)cyclohexyl]benzenesulfonamide], the IC50 was determined as 4 nM.

In turn, `CCc1ccc(S(=O)(=O)N[C@H]2CCC[C@@H](n3cnnc3)C2)cc1-c1cccnc1OC` [Compound 2Mn, 4-ethyl-3-(2-methoxypyridin-3-yl)-N-[(1S,3R)-3-(4H-1,2,4-triazol-4-yl)cyclohexyl]benzenesulfonamide] came in with an IC50 of 63 nM.

`Cc1nncn1[C@@H]1CCC[C@H](NS(=O)(=O)c2ccc(-n3ccc(C4CC4)n3)cc2)C1` [Compound 2Ns, 4-(3-cyclopropyl-1H-pyrazol-1-yl)-N-[(1S,3R)-3-(3-methyl-4H-1,2,4-triazol-4-yl)cyclohexyl]benzenesulfonamide] returned an IC50 of 30 nM.

The compound `O=S(=O)(N[C@H]1CCC[C@@H](n2cnnc2)C1)c1ccc(-c2ccc(OCC(F)(F)F)nc2)cc1F` [Compound 2Ih, 2-fluoro-N-[(1S,3R)-3-(4H-1,2,4-triazol-4-yl)cyclohexyl]-4-[6-(2,2,2-trifluoroethoxy)pyridin-3-yl]benzenesulfonamide] had a 50% inhibitory concentration (IC50) of 4 nM. This IC50 is about 7.5-fold lower than that of the compound before.

In turn, `CCCCOc1ccc(S(=O)(=O)N[C@H]2CCC[C@@H](n3cnnc3)C2)cc1` [Compound 2Mw, 4-butoxy-N-[(1S,3R)-3-(4H-1,2,4-triazol-4-yl)cyclohexyl]benzenesulfonamide] came in with an IC50 of 8.3 nM.

`O=S(=O)(N[C@H]1CCC[C@@H](n2cnnc2)C1)c1ccc(-c2noc(C(F)(F)F)n2)cc1C1CC1` [2 Kb, 2-cyclopropyl-N-[(1S,3R)-3-(4H-1,2,4-triazol-4-yl)cyclohexyl]-4-[5-(trifluoromethyl)-1,2,4-oxadiazol-3-yl]benzenesulfonamide] displayed an IC50 of 16 nM.

Consider `CCCCOc1ccc(S(=O)(=O)N[C@H]2CCC[C@@H](n3cnnc3C3CC3)C2)c(F)c1` [Compound 2Oag, 4-butoxy-N-[(1S,3R)-3-(3-cyclopropyl-4H-1,2,4-triazol-4-yl)cyclohexyl]-2-fluorobenzenesulfonamide], for which the IC50 is 7.2 nM.

Compound `CCc1cc(-c2cccnc2OC)ccc1S(=O)(=O)N[C@H]1CCC[C@@H](n2cnnc2)C1` [Compound 2Aq, 2-ethyl-4-(2-methoxypyridin-3-yl)-N-[(1S,3R)-3-(4H-1,2,4-triazol-4-yl)cyclohexyl]benzenesulfonamide] showed an IC50 of 27 nM.

Turning to `CCc1cc(-c2noc(C3CC3)n2)ccc1S(=O)(=O)N[C@H]1CCC[C@@H](n2cnnc2C(F)(F)F)C1` [Compound 2Aa, 4-(5-cyclopropyl-1,2,4-oxadiazol-3-yl)-2-ethyl-N-{(1S,3R)-3-[3-(trifluoromethyl)-4H-1,2,4-triazol-4-yl]cyclohexyl}benzenesulfonamide], the IC50 worked out at 5.5 nM.

Compound `CCc1cc(-c2ccc(F)cc2)ccc1S(=O)(=O)N[C@H]1CCC[C@@H](n2cnnc2)C1` [Compound 2An, 3-ethyl-4′-fluoro-N-[(1S,3R)-3-(4H-1,2,4-triazol-4-yl)cyclohexyl]benzenesulfonamide] came in with a 50% inhibitory concentration (IC50) of 17 nM.

The compound `CCc1cc(-c2ccc(OC(F)(F)F)cc2)ccc1S(=O)(=O)N[C@@H]1C[C@H](n2cnnc2C)CC(F)(F)C1` [Compound 2Cbd, N-[(1R,5S)-3,3-difluoro-5-(3-methyl-4H-1,2,4-triazol-4-yl)cyclohexyl]-3-ethyl-4′-(trifluoromethoxy)biphenyl-4-sulfonamide] came in with an IC50 of 0.9 nM.

For the compound `CCc1cc(-c2ccccc2F)ccc1S(=O)(=O)N[C@H]1CCC[C@@H](n2cnnc2)C1` [Compound 2Al, 3-ethyl-2′-fluoro-N-[(1S,3R)-3-(4H-1,2,4-triazol-4-yl)cyclohexyl]benzenesulfonamide], the IC50 was 22 nM. This IC50 lies about 24-fold higher than the previous one.

`CCc1cc(-c2ccc(OC(F)(F)F)cc2C)ccc1S(=O)(=O)N[C@H]1CCC[C@@H](n2cnnc2)C1` [Compound 2Abl, 3-ethyl-2′-methyl-N-[(1S,3R)-3-(4H-1,2,4-triazol-4-yl)cyclohexyl]-4′-(trifluoromethoxy)biphenyl-4-sulfonamide] showed an IC50 of 30 nM.

Take `CCc1cc(-c2nccs2)ccc1S(=O)(=O)N[C@H]1CCC[C@@H](n2cnnc2)C1` [Compound 2Aaw, 2-ethyl-4-(1,3-thiazol-2-yl)-N-[(1S,3R)-3-(4H-1,2,4-triazol-4-yl)cyclohexyl]benzenesulfonamide]: the IC50 stood at 45 nM.

`O=S(=O)(N[C@H]1CCC[C@@H](n2cnnc2)C1)c1cc(Br)cc(C(F)(F)F)c1` [Compound 2Mi, 3-bromo-N-[(1S,3R)-3-(4H-1,2,4-triazol-4-yl)cyclohexyl]-5-(trifluoromethyl)benzenesulfonamide] displayed an IC50 of 165 nM.
